Laboratory results published in ChEMBL document CHEMBL5316330, “Design of an Ultralow Molecular Weight Heparin That Resists Heparanase Biodegradation” (J Med Chem, 2023).
The source made the active and inactive calls. The rule behind the calls is not given here.

How the values were obtained:
[1] = Stability of compound assessed as heparanase-mediated compound degradation by measuring retention time at 20 ug incubated overnight by LC-MS analysis (reference value: 10 mins); assay type: physicochemical; conditions: dose 20 µg
[2] = biological target: T1, Coagulation factor X (Homo sapiens, UniProt P00742); experiment: Inhibition of human factor Xa using S-2765 as substrate preincubated with antithrombin for 3 mins followed by incubation with factor Xa for 2 mins and further incubated with substrate for 5 mins by absorbance based assay
[3] = biological target: T1, Coagulation factor X; experiment: Potency index, ratio of Enoxaparin IC50 to test compound IC50 for factor Xa (unknown origin) by ACTICHROME heparin assay
[4] = tested on: Mus musculus; experiment: Anticoagulant activity in C57BL/6 mouse model of non-occlusive venous thrombosis assessed as inhibition of factor Xa in plasma at 12 ug/g, sc treated for 1 hr prior to electrolytic injury and 24 hrs after injury; assay type: functional; conditions: dose 12 µg/g, time 25 hrs
[5] = tested on: Mus musculus; experiment: Anticoagulant activity in C57BL/6 mouse model of non-occlusive venous thrombosis assessed as average IVC weight at 4 ug/g, sc treated for 4 hrs prior to electrolytic injury and 24 hrs after injury (reference value: 31.5 +/- 2.3 mg); assay type: functional; conditions: dose 4 µg/g, time 28 hrs
[6] = tested on: Mus musculus; experiment: Anticoagulant activity in C57BL/6 mouse model of non-occlusive venous thrombosis assessed as average IVC weight at 12 ug/g, sc treated for 1 hr prior to electrolytic injury and 24 hrs after injury (reference value: 31.5 +/- 2.3 mg); assay type: functional; conditions: dose 12 µg/g, time 25 hrs
[7] = tested on: Mus musculus; experiment: Anticoagulant activity in C57BL/6 mouse model of non-occlusive venous thrombosis assessed as average bleeding time at 12 ug/g, sc treated for 1 hr prior to electrolytic injury and 24 hrs after injury (reference value: 81 +/- 3 mg); assay type: functional; conditions: dose 12 µg/g, time 25 hrs
[8] = Stability of compound assessed as heparanase-mediated compound degradation by measuring retention time at 20 ug incubated overnight by LC-MS analysis (reference value: 17 mins); assay type: physicochemical; conditions: dose 20 µg
[9] = biological target: T1, Coagulation factor X; experiment: Inhibition of human factor Xa using S-2765 as substrate at 7 to 3600 ng/ml preincubated with antithrombin for 3 mins followed by incubation with factor Xa for 2 mins and further incubated with substrate for 5 mins by absorbance based assay; conditions: dose 7-3600 ng/ml, time 10.0 min

T1 sequence (P00742 41-179 limits assumed): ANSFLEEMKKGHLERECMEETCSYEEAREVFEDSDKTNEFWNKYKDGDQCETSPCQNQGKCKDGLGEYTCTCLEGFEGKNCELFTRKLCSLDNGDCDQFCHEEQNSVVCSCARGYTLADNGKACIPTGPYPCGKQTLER
T1 sequence (P00742 235-488 limits assumed): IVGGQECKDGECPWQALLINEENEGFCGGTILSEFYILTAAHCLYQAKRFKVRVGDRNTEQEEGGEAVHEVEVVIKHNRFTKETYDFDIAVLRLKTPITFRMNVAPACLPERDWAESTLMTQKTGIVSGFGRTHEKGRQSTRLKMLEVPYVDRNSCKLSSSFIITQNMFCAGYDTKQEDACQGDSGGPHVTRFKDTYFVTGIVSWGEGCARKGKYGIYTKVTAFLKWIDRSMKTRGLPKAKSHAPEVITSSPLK

| Retention_time [1] [min] | IC50 [2] [nM] | fold change (FC) [3] | Retention_time [8] [min] | inhibition [9] | Compound | Activity [4] [IU/ml] | Activity [5] [mg] | Activity [6] [mg] | Activity [7] [mg] |
| --- | --- | --- | --- | --- | --- | --- | --- | --- | --- |
| 15 | 177 | 3 |  |  | O=C(O)[C@H]1O[C@@H](O[C@H]2[C@H](O)[C@@H](NS(=O)(=O)O)[C@@H](O[C@@H]3[C@H](O)[C@@H](OS(=O)(=O)O)[C@H](O[C@H]4[C@H](OS(=O)(=O)O)[C@@H](NS(=O)(=O)O)[C@@H](O[C@H]5[C@H](O)[C@@H](OS(=O)(=O)O)[C@H](O[C@@H]6[C@H](O)[C@@H](NS(=O)(=O)O)[C@@H](O[C@H]7[C@H](O)[C@@H](O)[C@H](Oc8ccc([N+](=O)[O-])cc8)O[C@@H]7C(=O)O)O[C@@H]6COS(=O)(=O)O)O[C@@H]5C(=O)O)O[C@@H]4COS(=O)(=O)O)O[C@H]3C(=O)O)O[C@@H]2COS(=O)(=O)O)[C@H](O)[C@@H](O)[C@@H]1O | 0.55 | 13.9 | 18.8 | 143 |
|  |  |  | 22 | inactive | O=C(O)[C@H]1O[C@@H](Oc2ccc([N+](=O)[O-])cc2)[C@H](O)[C@@H](O)[C@@H]1O[C@H]1O[C@H](COS(=O)(=O)O)[C@@H](O[C@@H]2O[C@@H](C(=O)O)[C@H](O[C@H]3O[C@H](COS(=O)(=O)O)[C@@H](O[C@@H]4O[C@H](C(=O)O)[C@@H](O[C@H]5O[C@H](COS(=O)(=O)O)[C@@H](O)[C@H](O)[C@H]5NS(=O)(=O)O)[C@H](O)[C@H]4O)[C@H](OS(=O)(=O)O)[C@H]3NS(=O)(=O)O)[C@H](O)[C@H]2OS(=O)(=O)O)[C@H](O)[C@H]1NS(=O)(=O)O |  |  |  |  |
